Assay results from patent publication US8008077B2, “Photochemical internalization for delivery of molecules into the cytosol” (priority 2000, dated 2011).

System: V-79 cells
Assay: PCI cell killing by bleomycin, cell survival by MTT assay
Assay type: cell-based, Chinese hamster
Conditions: light before
Description: The Chinese hamster lung fibroblast cell line V-79 was used in this study.
The cells (75 000 cells/well, 1 ml/well) were seeded into 12-well plates (Costar Corning, N.Y., USA) and allowed to attach for 6 h. To some of the wells 1 ml medium with 0.7 μg/ml TPPS2a was added (see Table 1), and the cells were incubated for 18 h (5% v/v CO2, 37° C.) The cells were washed three times with medium. The cells were then incubated in serum-containing medium for 4 h. The medium was removed, new medium was added and the cells were illuminated by exposure to light from a box containing a bank of four fluorescent tubes (Osram 18W/67) with the highest fluence around 420 nm.
Different doses of bleomycin were immediately added. After 1 or 4 h incubation with bleomycin the cells were washed once with RPMI-medium, 1 ml of medium was added and after 3 days of incubation cell survival was measured by the MTT assay. This method is based on reduction of a water-soluble tetrazolium salt (MTT) to a purple, insoluble formazan product by mitochondrial dehydrogenases present in living, metabolically active cells. […] The solution is transferred to a 96 wells plate which is read by a Multiskan EX microplate reader (Labsystems, Finland) with a 570 nm bandpass filter. Cell survival is calculated as percent of control cells not receiving light treatment.

Substance: bleomycin
- light-induced effect on cytotoxicity (cell survival, MTT) (100 μM bleomycin, 1 or 4 h, with 0.7 μg/ml TPPS2a): substantial light-induced increase in the cytotoxicity
- light-induced effect on cell survival (MTT) (lowest dose of bleomycin (5 μM, 1 h), with TPPS2a): lack of effect
